Assay results reported in ChEMBL document CHEMBL1909046, “DrugMatrix in vitro pharmacology data”.
Where a SMILES comes first, the peptide text is derived from it. Bridges are numbered along the chain shown (N, C = ends). [ ]: non-standard residue; d: D form. The star is where a group is joined. Ileψ(thiazoline)Cys = CC[C@H](C)[C@H](N)C1=N[C@H](C(=O)*)CS1; dOrn = NCCC[C@@H](N)C(=O)O

How the values were obtained:
[1] = molecular target: Vasopressin V1a receptor (Homo sapiens, UniProt P37288); assay type: cell membranes, Membrane; conditions: hek293; also: in other assays of this panel Not Active means under 50% inhibition at 10 µM
Chain of Vasopressin V1a receptor (P37288 whole entry): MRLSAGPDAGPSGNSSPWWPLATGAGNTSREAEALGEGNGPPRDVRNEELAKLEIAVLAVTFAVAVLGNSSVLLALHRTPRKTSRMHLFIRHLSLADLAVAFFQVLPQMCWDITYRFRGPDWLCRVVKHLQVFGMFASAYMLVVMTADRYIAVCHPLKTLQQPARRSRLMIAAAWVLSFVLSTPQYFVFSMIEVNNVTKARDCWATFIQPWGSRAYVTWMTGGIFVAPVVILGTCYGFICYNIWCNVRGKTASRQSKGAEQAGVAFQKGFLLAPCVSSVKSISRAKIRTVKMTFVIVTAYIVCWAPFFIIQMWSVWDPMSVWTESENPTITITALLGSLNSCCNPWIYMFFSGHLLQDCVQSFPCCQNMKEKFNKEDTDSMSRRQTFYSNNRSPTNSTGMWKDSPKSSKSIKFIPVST

[2] = molecular target: T1, C-X-C chemokine receptor type 2 (Homo sapiens, UniProt P25025); assay type: cell membranes, Membrane; conditions: cho-k1; also: in other assays of this panel Not Active means under 50% inhibition at 10 µM
T1 sequence (P25025 whole entry): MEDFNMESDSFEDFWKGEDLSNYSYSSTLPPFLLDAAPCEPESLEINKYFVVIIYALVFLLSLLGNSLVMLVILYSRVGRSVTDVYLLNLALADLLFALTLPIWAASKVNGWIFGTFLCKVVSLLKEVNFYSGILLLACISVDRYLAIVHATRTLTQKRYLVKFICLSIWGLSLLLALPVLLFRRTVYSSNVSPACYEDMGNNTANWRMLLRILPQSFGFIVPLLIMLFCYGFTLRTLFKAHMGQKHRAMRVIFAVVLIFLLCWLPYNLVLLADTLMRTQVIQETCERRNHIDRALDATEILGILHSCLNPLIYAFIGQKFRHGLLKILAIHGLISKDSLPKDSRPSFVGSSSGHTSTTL

[3] = molecular target: T2, Cholecystokinin receptor type A (Homo sapiens, UniProt P32238); assay type: cell membranes, Membrane; conditions: 1321-n1; also: in other assays of this panel Not Active means under 50% inhibition at 10 µM
T2 sequence (P32238 whole entry): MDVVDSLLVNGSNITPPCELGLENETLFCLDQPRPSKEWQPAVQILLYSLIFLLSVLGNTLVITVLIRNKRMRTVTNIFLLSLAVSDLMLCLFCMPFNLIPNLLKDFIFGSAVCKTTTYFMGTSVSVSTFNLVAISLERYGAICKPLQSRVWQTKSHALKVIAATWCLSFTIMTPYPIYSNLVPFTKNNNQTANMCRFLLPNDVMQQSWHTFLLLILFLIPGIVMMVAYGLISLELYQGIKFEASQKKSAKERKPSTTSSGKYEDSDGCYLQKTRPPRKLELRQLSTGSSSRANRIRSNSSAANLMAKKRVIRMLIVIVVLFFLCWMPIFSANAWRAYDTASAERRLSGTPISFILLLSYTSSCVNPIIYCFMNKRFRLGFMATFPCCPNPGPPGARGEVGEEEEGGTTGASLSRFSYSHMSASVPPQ

[4] = molecular target: T3, Endothelin-1 receptor (Homo sapiens, UniProt P25101); assay type: cell membranes, Membrane; conditions: cho-k1; also: in other assays of this panel Not Active means under 50% inhibition at 10 µM
T3 sequence (P25101 whole entry): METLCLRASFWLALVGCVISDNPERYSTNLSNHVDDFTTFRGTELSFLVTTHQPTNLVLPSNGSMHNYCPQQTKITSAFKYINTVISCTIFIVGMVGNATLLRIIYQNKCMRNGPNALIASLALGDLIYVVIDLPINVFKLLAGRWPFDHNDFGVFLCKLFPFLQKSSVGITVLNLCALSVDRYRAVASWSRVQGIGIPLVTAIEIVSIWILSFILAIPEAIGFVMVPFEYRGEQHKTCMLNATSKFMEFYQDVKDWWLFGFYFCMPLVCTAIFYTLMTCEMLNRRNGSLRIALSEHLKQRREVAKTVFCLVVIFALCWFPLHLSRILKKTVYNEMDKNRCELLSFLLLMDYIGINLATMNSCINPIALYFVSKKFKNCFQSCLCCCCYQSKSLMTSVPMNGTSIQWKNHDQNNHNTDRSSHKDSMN

[5] = molecular target: Mu-type opioid receptor (Homo sapiens, UniProt P35372); experiment: DRUGMATRIX: Opiate mu (OP3, MOP) radioligand binding (ligand: [3H] Diprenorphine); assay type: cell membranes, CHO-K1, Membrane; conditions: cho-k1; Not Active = under 50% inhibition at 10 µM
Chain of Mu-type opioid receptor (P35372 whole entry): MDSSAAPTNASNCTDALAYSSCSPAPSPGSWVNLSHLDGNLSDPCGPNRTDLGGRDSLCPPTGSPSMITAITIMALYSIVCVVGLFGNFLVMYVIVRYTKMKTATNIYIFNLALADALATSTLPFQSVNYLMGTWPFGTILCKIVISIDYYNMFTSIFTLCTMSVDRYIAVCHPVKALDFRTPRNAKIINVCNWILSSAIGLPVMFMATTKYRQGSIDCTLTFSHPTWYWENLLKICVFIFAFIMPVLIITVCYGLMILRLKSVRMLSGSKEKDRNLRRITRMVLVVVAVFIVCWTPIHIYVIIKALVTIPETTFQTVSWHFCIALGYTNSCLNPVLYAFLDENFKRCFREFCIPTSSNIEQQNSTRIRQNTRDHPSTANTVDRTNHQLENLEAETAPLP

[6] = DRUGMATRIX: Phosphodiesterase PDE4 enzyme inhibition (substrate: [3H]cAMP + cAMP); conditions: u-937, Not Active = under 50% inhibition at 10 µM
[7] = molecular target: T4, Angiotensin-converting enzyme (Oryctolagus cuniculus, UniProt P12822); experiment: biochemical; assay type: tissue-based, Lung
T4 sequence (P12822 whole entry): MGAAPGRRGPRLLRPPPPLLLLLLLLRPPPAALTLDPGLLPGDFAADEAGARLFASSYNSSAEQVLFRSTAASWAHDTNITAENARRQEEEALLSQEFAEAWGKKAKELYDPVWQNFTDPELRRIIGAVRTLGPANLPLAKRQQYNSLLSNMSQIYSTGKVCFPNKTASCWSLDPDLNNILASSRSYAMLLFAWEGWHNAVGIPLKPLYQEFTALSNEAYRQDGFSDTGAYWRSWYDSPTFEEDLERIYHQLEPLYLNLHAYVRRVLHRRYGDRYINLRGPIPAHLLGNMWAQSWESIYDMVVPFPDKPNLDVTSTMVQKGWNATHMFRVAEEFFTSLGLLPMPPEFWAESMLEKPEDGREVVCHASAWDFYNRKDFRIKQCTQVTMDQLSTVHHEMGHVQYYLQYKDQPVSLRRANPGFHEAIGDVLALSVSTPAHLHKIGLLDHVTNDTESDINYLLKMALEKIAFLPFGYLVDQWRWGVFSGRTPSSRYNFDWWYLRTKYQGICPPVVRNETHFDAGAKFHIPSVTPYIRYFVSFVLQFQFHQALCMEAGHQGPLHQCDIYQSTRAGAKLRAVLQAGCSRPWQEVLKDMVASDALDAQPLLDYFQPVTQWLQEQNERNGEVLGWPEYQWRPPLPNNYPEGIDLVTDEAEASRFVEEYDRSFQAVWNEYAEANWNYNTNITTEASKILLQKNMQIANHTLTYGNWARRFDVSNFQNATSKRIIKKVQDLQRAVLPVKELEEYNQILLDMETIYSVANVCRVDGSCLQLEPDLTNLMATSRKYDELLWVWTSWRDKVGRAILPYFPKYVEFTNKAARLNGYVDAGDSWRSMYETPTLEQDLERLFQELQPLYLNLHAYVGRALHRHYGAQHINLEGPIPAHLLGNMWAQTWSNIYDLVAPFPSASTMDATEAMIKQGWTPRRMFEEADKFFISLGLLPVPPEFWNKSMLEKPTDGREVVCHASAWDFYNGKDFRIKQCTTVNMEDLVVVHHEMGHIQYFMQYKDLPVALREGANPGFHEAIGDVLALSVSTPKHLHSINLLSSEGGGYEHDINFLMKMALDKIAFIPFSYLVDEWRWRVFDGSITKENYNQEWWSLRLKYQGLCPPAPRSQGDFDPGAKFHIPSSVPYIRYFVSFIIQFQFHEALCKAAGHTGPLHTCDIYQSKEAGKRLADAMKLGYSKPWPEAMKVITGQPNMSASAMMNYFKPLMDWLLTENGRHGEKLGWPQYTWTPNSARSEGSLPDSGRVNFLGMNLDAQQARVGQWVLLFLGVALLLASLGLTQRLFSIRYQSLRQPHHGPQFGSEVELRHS

Compound | IC50 [1] | IC50 [2] | IC50 [3] | IC50 [4] | IC50 [5] | IC50 [6] | Ki [6] | IC50 [7] | IC50 ([6]; read-out: IC50) [nM]
C=C1C(=O)O[C@@H]2C3O[C@]3(C)CC/C=C(\C)CC[C@@H]12 (some centres undefined) | Not Active | Not Active | Not Active | Not Active | Not Active | Not Active | Not Active | Not Active | 
COc1ccc2c(c1)c(CC(=O)OCC(=O)O)c(C)n2C(=O)c1ccc(Cl)cc1 [ACEMETACIN] | Not Active | Not Active | Not Active | Not Active | Not Active | Not Active | Not Active | Not Active | 
CCCSc1ccc2nc(NC(=O)OC)[nH]c2c1 [ALBENDAZOLE] | Not Active | Not Active | Not Active | Not Active | Not Active | Not Active | Not Active | Not Active | 
Cc1[nH]cnc1CN1CCc2c(c3ccccc3n2C)C1=O [ALOSETRON] | Not Active | Not Active | Not Active | Not Active | Not Active | Not Active | Not Active | Not Active | 
O=c1cc(-c2ccccc2)oc2c1ccc1ccccc12 [ALPHA-NAPHTHOFLAVONE] | Not Active | Not Active | Not Active | Not Active | Not Active |  |  | Not Active | 2920
NCC[C@H](O)C(=O)N[C@@H]1C[C@H](N)[C@@H](O[C@H]2O[C@H](CN)[C@@H](O)[C@H](O)[C@H]2O)[C@H](O)[C@H]1O[C@H]1O[C@H](CO)[C@@H](O)[C@H](N)[C@H]1O [AMIKACIN] | Not Active | Not Active | Not Active | Not Active | Not Active | Not Active | Not Active | Not Active | 
CC1(C)S[C@@H]2[C@H](NC(=O)[C@H](N)c3ccc(O)cc3)C(=O)N2[C@H]1C(=O)O [AMOXICILLIN] | Not Active | Not Active | Not Active | Not Active | Not Active | Not Active | Not Active | Not Active | 
CCOC(=O)OC(C)OC1=C(C(=O)Nc2ccccn2)N(C)S(=O)(=O)c2ccccc21 (centres undefined) [AMPIROXICAM] | Not Active | Not Active | Not Active | Not Active | Not Active | Not Active | Not Active | Not Active | 
N=C(N)NCCCCNC(=N)N.O=S(=O)(O)O [ARCAINE SULFATE] | Not Active | Not Active | Not Active | Not Active | Not Active | Not Active | Not Active | Not Active | 
Cn1cnc([N+](=O)[O-])c1Sc1ncnc2nc[nH]c12 [AZATHIOPRINE] | Not Active | Not Active | Not Active | Not Active | Not Active | Not Active | Not Active | Not Active | 
CC1(C)S[C@@H]2[C@H](NC(=O)[C@H](NC(=O)N3CCNC3=O)c3ccccc3)C(=O)N2[C@H]1C(=O)O [AZLOCILLIN] | Not Active | Not Active | Not Active | Not Active | Not Active | Not Active | Not Active | Not Active | 
CC[C@H](C)[C@H](N)C1=N[C@H](C(=O)N[C@@H](CC(C)C)C(=O)N[C@H](CCC(=O)O)C(=O)N[C@H](C(=O)N[C@H]2CCCCNC(=O)[C@H](CC(N)=O)NC(=O)[C@@H](CC(=O)O)NC(=O)[C@H](Cc3cnc[nH]3)NC(=O)[C@@H](Cc3ccccc3)NC(=O)[C@H]([C@@H](C)CC)NC(=O)[C@@H](CCCN)NC2=O)[C@@H](C)CC)CS1 [BACITRACIN] ({Ileψ(thiazoline)Cys}-L[dE]IK[dOrn]I[dF]H[dD]N; lactam 4-C) | Not Active | Not Active | Not Active | Not Active | Not Active | Not Active | Not Active | Not Active | 
CCOC(=O)c1ccc(N)cc1 [BENZOCAINE] | Not Active | Not Active | Not Active | Not Active | Not Active | Not Active | Not Active | Not Active | 
OCc1ccccc1 [BENZYL ALCOHOL] | Not Active | Not Active | Not Active | Not Active | Not Active | Not Active | Not Active | Not Active | 
CC(C)(Oc1ccc(CCNC(=O)c2ccc(Cl)cc2)cc1)C(=O)O [BEZAFIBRATE] | Not Active | Not Active | Not Active | Not Active | Not Active | Not Active | Not Active | Not Active | 
